Experimental data: BindingDB's records for doi:10.1021/jm010294e (Novartis Institute For Biomedical Reasearch, 2001)
pIC50: −log10 of the molar value.

Biological target: Apolipoprotein B-100 (Homo sapiens, UniProt P04114)
Test: Inhibition of apolipoprotein B (apoB) secreted by human hepatoma cells (Hep G2) […]

Apolipoprotein B-100, sequence (P04114 whole entry C1422Y): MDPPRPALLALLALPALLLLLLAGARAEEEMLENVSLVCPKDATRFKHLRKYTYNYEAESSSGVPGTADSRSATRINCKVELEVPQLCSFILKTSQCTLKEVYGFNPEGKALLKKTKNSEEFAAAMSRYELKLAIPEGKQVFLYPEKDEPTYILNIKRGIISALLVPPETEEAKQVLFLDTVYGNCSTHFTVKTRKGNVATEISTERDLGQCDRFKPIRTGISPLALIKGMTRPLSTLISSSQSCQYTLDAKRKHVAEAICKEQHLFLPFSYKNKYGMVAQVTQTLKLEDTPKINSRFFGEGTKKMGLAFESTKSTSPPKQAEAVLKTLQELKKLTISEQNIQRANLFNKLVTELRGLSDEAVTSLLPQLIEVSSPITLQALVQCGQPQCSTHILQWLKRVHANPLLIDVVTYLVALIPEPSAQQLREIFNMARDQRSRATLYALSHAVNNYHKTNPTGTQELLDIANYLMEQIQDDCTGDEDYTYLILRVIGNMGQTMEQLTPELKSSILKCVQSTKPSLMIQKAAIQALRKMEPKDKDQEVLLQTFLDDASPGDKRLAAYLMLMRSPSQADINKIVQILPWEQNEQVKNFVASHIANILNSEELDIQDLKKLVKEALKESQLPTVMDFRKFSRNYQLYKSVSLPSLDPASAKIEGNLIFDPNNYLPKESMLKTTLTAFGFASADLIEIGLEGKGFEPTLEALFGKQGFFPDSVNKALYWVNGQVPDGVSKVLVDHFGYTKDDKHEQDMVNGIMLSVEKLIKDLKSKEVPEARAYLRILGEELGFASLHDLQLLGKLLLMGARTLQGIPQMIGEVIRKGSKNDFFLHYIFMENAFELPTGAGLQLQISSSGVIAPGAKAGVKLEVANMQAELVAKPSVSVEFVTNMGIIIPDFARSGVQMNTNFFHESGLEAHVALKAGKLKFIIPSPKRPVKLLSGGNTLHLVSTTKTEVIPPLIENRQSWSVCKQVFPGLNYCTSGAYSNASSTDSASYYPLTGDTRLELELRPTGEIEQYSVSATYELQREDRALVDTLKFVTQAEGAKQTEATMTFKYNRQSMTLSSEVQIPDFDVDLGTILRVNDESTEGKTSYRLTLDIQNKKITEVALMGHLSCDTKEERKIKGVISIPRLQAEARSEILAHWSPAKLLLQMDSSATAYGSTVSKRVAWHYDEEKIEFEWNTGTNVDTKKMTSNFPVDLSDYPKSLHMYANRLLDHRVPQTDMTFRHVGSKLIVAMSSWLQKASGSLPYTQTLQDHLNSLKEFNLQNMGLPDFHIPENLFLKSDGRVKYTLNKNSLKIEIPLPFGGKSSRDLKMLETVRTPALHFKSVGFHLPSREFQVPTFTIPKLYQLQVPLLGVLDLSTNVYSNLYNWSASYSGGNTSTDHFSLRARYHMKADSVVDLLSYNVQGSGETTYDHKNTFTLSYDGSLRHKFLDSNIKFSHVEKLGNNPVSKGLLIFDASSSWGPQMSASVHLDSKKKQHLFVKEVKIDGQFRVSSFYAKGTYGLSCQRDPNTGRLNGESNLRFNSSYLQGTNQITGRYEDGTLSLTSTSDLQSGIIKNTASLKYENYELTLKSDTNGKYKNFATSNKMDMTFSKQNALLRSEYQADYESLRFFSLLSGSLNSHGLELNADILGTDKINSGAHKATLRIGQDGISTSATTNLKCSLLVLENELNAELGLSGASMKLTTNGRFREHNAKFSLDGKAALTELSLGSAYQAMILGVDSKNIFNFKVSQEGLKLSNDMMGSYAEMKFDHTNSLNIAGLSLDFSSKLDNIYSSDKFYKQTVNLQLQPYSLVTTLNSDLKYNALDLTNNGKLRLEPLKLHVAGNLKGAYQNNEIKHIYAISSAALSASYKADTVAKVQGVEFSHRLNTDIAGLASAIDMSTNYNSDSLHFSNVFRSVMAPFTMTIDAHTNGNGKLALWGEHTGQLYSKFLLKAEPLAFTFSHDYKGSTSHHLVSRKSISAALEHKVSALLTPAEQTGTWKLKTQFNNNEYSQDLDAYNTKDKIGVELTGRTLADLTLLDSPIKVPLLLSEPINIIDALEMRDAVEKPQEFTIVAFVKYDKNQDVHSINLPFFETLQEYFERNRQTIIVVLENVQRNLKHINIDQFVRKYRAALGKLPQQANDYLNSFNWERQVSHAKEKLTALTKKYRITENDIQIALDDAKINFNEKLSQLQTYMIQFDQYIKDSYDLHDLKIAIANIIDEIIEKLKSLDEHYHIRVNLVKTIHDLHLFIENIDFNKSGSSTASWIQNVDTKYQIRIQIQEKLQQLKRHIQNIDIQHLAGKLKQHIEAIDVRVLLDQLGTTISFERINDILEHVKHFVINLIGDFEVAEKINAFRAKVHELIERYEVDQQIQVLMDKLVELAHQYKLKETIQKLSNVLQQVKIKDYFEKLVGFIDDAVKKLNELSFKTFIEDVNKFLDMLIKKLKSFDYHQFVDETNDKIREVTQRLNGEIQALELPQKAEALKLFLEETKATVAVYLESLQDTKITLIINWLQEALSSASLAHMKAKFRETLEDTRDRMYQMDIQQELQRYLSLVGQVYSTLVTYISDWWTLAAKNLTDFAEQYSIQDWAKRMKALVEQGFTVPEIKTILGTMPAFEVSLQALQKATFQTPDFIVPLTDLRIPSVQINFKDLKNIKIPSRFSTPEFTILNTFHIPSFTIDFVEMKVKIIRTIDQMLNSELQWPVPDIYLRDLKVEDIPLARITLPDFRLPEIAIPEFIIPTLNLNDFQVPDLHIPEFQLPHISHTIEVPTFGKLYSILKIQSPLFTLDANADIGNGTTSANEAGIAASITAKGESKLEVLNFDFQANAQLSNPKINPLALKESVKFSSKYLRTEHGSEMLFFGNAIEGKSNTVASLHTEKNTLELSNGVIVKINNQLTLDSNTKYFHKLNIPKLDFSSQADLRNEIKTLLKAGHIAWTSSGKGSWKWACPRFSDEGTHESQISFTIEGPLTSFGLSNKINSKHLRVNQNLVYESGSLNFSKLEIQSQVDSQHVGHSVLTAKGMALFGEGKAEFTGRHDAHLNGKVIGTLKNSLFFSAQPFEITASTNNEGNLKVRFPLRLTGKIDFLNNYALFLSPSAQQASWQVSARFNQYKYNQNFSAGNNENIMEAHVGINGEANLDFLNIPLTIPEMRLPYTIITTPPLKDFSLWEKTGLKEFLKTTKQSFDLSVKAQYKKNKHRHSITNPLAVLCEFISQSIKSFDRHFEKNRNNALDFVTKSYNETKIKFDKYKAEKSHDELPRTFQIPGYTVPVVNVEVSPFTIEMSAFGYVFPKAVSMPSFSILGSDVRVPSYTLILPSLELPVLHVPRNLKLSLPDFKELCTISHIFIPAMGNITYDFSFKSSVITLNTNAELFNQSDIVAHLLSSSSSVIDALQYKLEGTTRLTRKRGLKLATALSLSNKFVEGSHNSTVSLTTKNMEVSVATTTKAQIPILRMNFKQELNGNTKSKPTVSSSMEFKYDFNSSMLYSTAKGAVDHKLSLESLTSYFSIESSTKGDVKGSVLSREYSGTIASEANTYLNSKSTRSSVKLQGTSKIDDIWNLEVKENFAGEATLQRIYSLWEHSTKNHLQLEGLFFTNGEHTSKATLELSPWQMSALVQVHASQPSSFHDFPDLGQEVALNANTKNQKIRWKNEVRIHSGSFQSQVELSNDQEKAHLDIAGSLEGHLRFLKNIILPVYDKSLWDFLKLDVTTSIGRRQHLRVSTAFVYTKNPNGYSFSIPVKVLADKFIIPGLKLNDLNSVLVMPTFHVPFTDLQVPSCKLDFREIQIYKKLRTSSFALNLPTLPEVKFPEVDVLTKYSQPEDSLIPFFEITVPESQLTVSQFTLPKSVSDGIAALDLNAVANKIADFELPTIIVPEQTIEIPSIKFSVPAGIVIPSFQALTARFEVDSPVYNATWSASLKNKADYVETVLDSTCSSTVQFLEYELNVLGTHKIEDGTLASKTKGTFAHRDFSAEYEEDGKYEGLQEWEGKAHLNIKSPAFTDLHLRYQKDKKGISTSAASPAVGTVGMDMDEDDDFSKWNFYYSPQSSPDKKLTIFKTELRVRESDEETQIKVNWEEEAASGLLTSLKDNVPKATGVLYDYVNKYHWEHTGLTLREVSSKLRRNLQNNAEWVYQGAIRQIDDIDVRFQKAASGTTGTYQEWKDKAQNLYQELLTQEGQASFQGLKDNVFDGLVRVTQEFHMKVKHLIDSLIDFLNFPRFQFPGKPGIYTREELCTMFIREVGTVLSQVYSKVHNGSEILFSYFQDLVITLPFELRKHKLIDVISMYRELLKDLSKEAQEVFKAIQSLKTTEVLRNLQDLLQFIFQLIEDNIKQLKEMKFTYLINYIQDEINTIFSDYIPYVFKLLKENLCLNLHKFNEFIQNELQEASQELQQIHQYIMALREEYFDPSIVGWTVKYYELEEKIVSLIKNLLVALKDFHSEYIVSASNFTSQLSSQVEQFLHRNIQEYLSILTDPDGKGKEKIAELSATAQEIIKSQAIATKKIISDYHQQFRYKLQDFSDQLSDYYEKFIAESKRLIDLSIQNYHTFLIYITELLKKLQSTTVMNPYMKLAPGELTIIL

Structure (SMILES)	pIC50
O=C(Nc1ccc2c(c1)C[C@@H](NS(=O)(=O)c1ccccc1)C2)c1ccccc1-c1ccc(C(F)(F)F)cc1 [4'-Trifluoromethyl-biphenyl-2-carboxylic acid (2-benzenesulfonylamino-indan-5-yl)-amide]	7.38
O=C(Nc1ccc2c(c1)CC(NCc1ccccc1)C2)c1ccccc1-c1ccc(C(F)(F)F)cc1 (stereo not drawn) [4'-Trifluoromethyl-biphenyl-2-carboxylic acid (2-benzylamino-indan-5-yl)-amide]	6.47
Cc1cccc(C(=O)Nc2ccc3c(c2)CC(NS(C)(=O)=O)C3)c1-c1ccc(Cl)cc1 (stereo not drawn) [4'-Chloro-6-methyl-biphenyl-2-carboxylic acid (2-methanesulfonylamino-indan-5-yl)-amide]	8.18
Cc1cccc(C(=O)Nc2ccc3c(c2)CC(NS(=O)(=O)c2ccccc2)C3)c1-c1ccc(F)cc1 (stereo not drawn) [4'-Fluoro-6-methyl-biphenyl-2-carboxylic acid (2-benzenesulfonylamino-indan-5-yl)-amide]	8.92
COc1cccc(C(=O)Nc2ccc3c(c2)CC(NS(=O)(=O)c2ccccc2)C3)c1-c1ccc(Cl)cc1 (stereo not drawn) [4'-Chloro-6-methoxy-biphenyl-2-carboxylic acid (2-benzenesulfonylamino-indan-5-yl)-amide]	8.70
Cc1cccc(C(=O)Nc2ccc3c(c2)CC(NS(=O)(=O)c2ccccc2)C3)c1-c1ccc(Cl)cc1 (stereo not drawn) [4'-Chloro-6-methyl-biphenyl-2-carboxylic acid (2-benzenesulfonylamino-indan-5-yl)-amide]	8.62
CS(=O)(=O)NC1Cc2ccc(NC(=O)c3ccccc3-c3ccc(C(F)(F)F)cc3)cc2C1 (stereo not drawn) [4'-Trifluoromethyl-biphenyl-2-carboxylic acid (2-methanesulfonylamino-indan-5-yl)-amide]	7.22
Cc1cccc(C(=O)Nc2ccc3c(c2)CC(CNS(C)(=O)=O)C3)c1-c1ccc(Cl)cc1 (stereo not drawn) [4'-Chloro-6-methyl-biphenyl-2-carboxylic acid [2-(methanesulfonylamino-methyl)-indan-5-yl]-amide]	7.80
CN(C)C(=O)NC1Cc2ccc(NC(=O)c3ccccc3-c3ccc(C(F)(F)F)cc3)cc2C1 (stereo not drawn) [4'-Trifluoromethyl-biphenyl-2-carboxylic acid [2-(3,3-dimethyl-ureido)-indan-5-yl]-amide]	6.92
Cc1cccc(C(=O)Nc2ccc3c(c2)CC(NS(=O)(=O)c2cccs2)C3)c1-c1ccc(F)cc1 (stereo not drawn) [4'-Fluoro-6-methyl-biphenyl-2-carboxylic acid [2-(thiophene-2-sulfonylamino)-indan-5-yl]-amide]	8.85
Cc1cccc(C(=O)Nc2ccc3c(c2)CC(NS(=O)(=O)c2ccccc2)C3)c1-c1ccc(C#N)cc1 (stereo not drawn) [4'-Cyano-6-methyl-biphenyl-2-carboxylic acid (2-benzenesulfonylamino-indan-5-yl)-amide]	8.26
Cc1cccc(C(=O)Nc2ccc3c(c2)CC(NS(C)(=O)=O)C3)c1-c1ccc(F)cc1 (stereo not drawn) [4'-Fluoro-6-methyl-biphenyl-2-carboxylic acid (2-methanesulfonylamino-indan-5-yl)-amide]	8.08
O=C(NC1Cc2ccc(NC(=O)c3ccccc3-c3ccc(C(F)(F)F)cc3)cc2C1)c1ccccc1 (stereo not drawn) [4'-Trifluoromethyl-biphenyl-2-carboxylic acid (2-benzoylamino-indan-5-yl)-amide]	6.57
CC(=O)NC1Cc2ccc(NC(=O)c3ccccc3-c3ccc(C(F)(F)F)cc3)cc2C1 (stereo not drawn) [4'-Trifluoromethyl-biphenyl-2-carboxylic acid (2-acetylamino-indan-5-yl)-amide]	6.92
O=C(Nc1ccc2c(c1)CC(NS(=O)(=O)c1ccccc1)C2)c1ccccc1-c1ccc(C(F)(F)F)cc1 (stereo not drawn) [4'-Trifluoromethyl-biphenyl-2-carboxylic acid (2-benzenesulfonylamino-indan-5-yl)-amide]	8.89
Cc1cccc(C(=O)Nc2ccc3c(c2)CC(NS(=O)(=O)c2cccs2)C3)c1-c1ccc(Cl)cc1 (stereo not drawn) [4'-Chloro-6-methyl-biphenyl-2-carboxylic acid [2-(thiophene-2-sulfonylamino)-indan-5-yl]-amide]	8.52

Other lines, results leading:

pIC50	Structure (SMILES)
8.12	COC(=O)N[C@H]1Cc2ccc(NC(=O)c3cc(C(F)(F)F)ccc3-c3ccc(C(F)(F)F)cc3)cc2C1 [{5-[(4,4'-Bis-trifluoromethyl-biphenyl-2-carbonyl)-amino]-indan-2-yl}-carbamic acid methyl ester]
9.00	Cc1cc(C)c(-c2ccc(C(F)(F)F)cc2)c(C(=O)Nc2ccc3c(c2)C[C@H](NS(=O)(=O)c2cccs2)C3)c1 [4,6-Dimethyl-4'-trifluoromethyl-biphenyl-2-carboxylic acid [2-(thiophene-2-sulfonylamino)-indan-5-yl]-amide]
8.60	COC(=O)N[C@@H]1Cc2ccc(NC(=O)c3cc(C)cc(C)c3-c3ccc(C(F)(F)F)cc3)cc2C1 [{5-[(4,6-Dimethyl-4'-trifluoromethyl-biphenyl-2-carbonyl)-amino]-indan-2-yl}-carbamic acid methyl ester]
8.47	COC(=O)NC1Cc2ccc(NC(=O)c3cc(C)cc(C)c3-c3ccc(Cl)cc3)cc2C1 (stereo not drawn) [{5-[(4'-Chloro-4,6-dimethyl-biphenyl-2-carbonyl)-amino]-indan-2-yl}-carbamic acid methyl ester]
8.06	Cc1cccc(C(=O)Nc2ccc3c(c2)C[C@@H](NS(C)(=O)=O)C3)c1-c1ccc(C(F)(F)F)cc1 [6-Methyl-4'-trifluoromethyl-biphenyl-2-carboxylic acid (2-methanesulfonylamino-indan-5-yl)-amide]
8.62	COC(=O)NC1CCc2ccc(NC(=O)c3cc(C)cc(C)c3-c3ccc(C(F)(F)F)cc3)cc2CC1 (stereo not drawn) [{2-[(4,6-Dimethyl-4'-trifluoromethyl-biphenyl-2-carbonyl)-amino]-6,7,8,9-tetrahydro-5H-benzocyclohepten-7-yl}-carbamic acid methyl ester]
8.96	COC(=O)N[C@H]1Cc2ccc(NC(=O)c3cc(C)cc(C)c3-c3ccc(C(F)(F)F)cc3)cc2C1 [{5-[(4,6-Dimethyl-4'-trifluoromethyl-biphenyl-2-carbonyl)-amino]-indan-2-yl}-carbamic acid methyl ester]
8.74	COC(=O)N[C@H]1Cc2ccc(NC(=O)c3cccc(C(F)(F)F)c3-c3ccc(C(F)(F)F)cc3)cc2C1 [{5-[(6,4'-Bis-trifluoromethyl-biphenyl-2-carbonyl)-amino]-indan-2-yl}-carbamic acid methyl ester]
8.72	COC(=O)N[C@H]1Cc2ccc(NC(=O)c3ccccc3-c3ccc(C(F)(F)F)cc3)cc2C1 [{5-[(4'-Trifluoromethyl-biphenyl-2-carbonyl)-amino]-indan-2-yl}-carbamic acid methyl ester]
8.06	COC(=O)NCC1Cc2ccc(NC(=O)c3cccc(C)c3-c3ccc(Cl)cc3)cc2C1 (stereo not drawn) [{5-[(4'-Chloro-6-methyl-biphenyl-2-carbonyl)-amino]-indan-2-ylmethyl}-carbamic acid methyl ester]
7.37	COC(=O)N1CCN([C@@H]2Cc3ccc(NC(=O)c4cccc(C)c4-c4ccc(C(F)(F)F)cc4)cc3C2)CC1 [4-{5-[(6-Methyl-4'-trifluoromethyl-biphenyl-2-carbonyl)-amino]-indan-2-yl}-piperazine-1-carboxylic acid methyl ester]
7.92	O=C(Nc1ccc2c(c1)CC(NS(=O)(=O)c1ccccc1)C2)c1ccccc1-c1ccccc1 (stereo not drawn) [Biphenyl-2-carboxylic acid (2-benzenesulfonylamino-indan-5-yl)-amide]
8.74	Cc1cccc(C(=O)Nc2ccc3c(c2)C[C@H](NS(C)(=O)=O)C3)c1-c1ccc(C(F)(F)F)cc1 [6-Methyl-4'-trifluoromethyl-biphenyl-2-carboxylic acid (2-methanesulfonylamino-indan-5-yl)-amide]
9.15	COC(=O)N[C@H]1Cc2ccc(NC(=O)c3cccc(C)c3-c3ccc(C(F)(F)F)cc3)cc2C1 [{5-[(6-Methyl-4'-trifluoromethyl-biphenyl-2-carbonyl)-amino]-indan-2-yl}-carbamic acid methyl ester]
8.80	COC(=O)NC1CCc2ccc(NC(=O)c3cccc(C)c3-c3ccc(C(F)(F)F)cc3)cc2CC1 (stereo not drawn) [{2-[(6-Methyl-4'-trifluoromethyl-biphenyl-2-carbonyl)-amino]-6,7,8,9-tetrahydro-5H-benzocyclohepten-7-yl}-carbamic acid methyl ester]
9.05	Cc1cccc(C(=O)Nc2ccc3c(c2)C[C@H](NS(=O)(=O)c2cccs2)C3)c1-c1ccc(C(F)(F)F)cc1 [6-Methyl-4'-trifluoromethyl-biphenyl-2-carboxylic acid [2-(thiophene-2-sulfonylamino)-indan-5-yl]-amide]
8.70	COC(=O)NC1CCc2ccc(NC(=O)c3cccc(C)c3-c3ccc(Cl)cc3)cc2CC1 (stereo not drawn) [{2-[(4'-Chloro-6-methyl-biphenyl-2-carbonyl)-amino]-6,7,8,9-tetrahydro-5H-benzocyclohepten-7-yl}-carbamic acid methyl ester]
8.72	Cc1cccc(C(=O)Nc2ccc3c(c2)CC(CNS(=O)(=O)c2cccs2)C3)c1-c1ccc(C(F)(F)F)cc1 (stereo not drawn) [6-Methyl-4'-trifluoromethyl-biphenyl-2-carboxylic acid {2-[(thiophene-2-sulfonylamino)-methyl]-indan-5-yl}-amide]
8.66	COC(=O)NCC1Cc2ccc(NC(=O)c3cc(C)cc(C)c3-c3ccc(C(F)(F)F)cc3)cc2C1 (stereo not drawn) [{5-[(4,6-Dimethyl-4'-trifluoromethyl-biphenyl-2-carbonyl)-amino]-indan-2-ylmethyl}-carbamic acid methyl ester]
8.59	Cc1cc(C)c(-c2ccc(C(F)(F)F)cc2)c(C(=O)Nc2ccc3c(c2)C[C@@H](NS(=O)(=O)c2cccs2)C3)c1 [4,6-Dimethyl-4'-trifluoromethyl-biphenyl-2-carboxylic acid [2-(thiophene-2-sulfonylamino)-indan-5-yl]-amide]
8.60	Cc1ccc(-c2c(C)cccc2C(=O)Nc2ccc3c(c2)CC(NS(=O)(=O)c2ccccc2)C3)cc1 (stereo not drawn) [6,4'-Dimethyl-biphenyl-2-carboxylic acid (2-benzenesulfonylamino-indan-5-yl)-amide]
8.28	COC(=O)N[C@@H]1Cc2ccc(NC(=O)c3ccccc3-c3ccc(C(F)(F)F)cc3)cc2C1 [{5-[(4'-Trifluoromethyl-biphenyl-2-carbonyl)-amino]-indan-2-yl}-carbamic acid methyl ester]
